Source: paper PMC11422593, “Structural and biochemical analysis of highly similar HLA-B allotypes differentially associated with type 1 diabetes” (The Journal of Biological Chemistry, 2024)
Like-named read-outs stand apart in the source and are kept apart here. No end group written: not given here.

Tests used:
HLA-B∗39:06 [1] = molecular target: T1, HLA-B∗39:06 (Homo sapiens, UniProt P01889, A182T/A93T/A95T/C349S/D138N/D201E/E176V/E187T/E204Q/K202T/L119W/Q94N/R155S/R180L/S121T/Y140F/Y91C); assay: biochemical; format: binding
HLA-B∗39:01 = molecular target: T2, HLA-B∗39:01 (Homo sapiens, UniProt P01889, A182T/A93T/A95T/C349S/D138N/D201E/E176V/E187T/E204Q/K202T/Q94N/R155S/R180L/S121R/Y140F/Y91C); assay: biochemical; format: binding
T2 construct: made in house

HLA-B∗38:01 [2] = molecular target: T3, HLA-B∗38:01 (Homo sapiens, UniProt P01889, A182T/A93T/A95T/C349S/D138N/D201E/D98Y/E176V/E187T/E204Q/G107R/K202T/L105A/N104I/Q94N/R106L/R155S/R180L/S101N/S121R/Y140F/Y91C); assay: biochemical
[3] = molecular target: HLA-B∗38:01 (purified MHC molecules) (human); assay: radioligand binding
[4] = molecular target: HLA-B∗39:01 (purified MHC molecules) (human); assay: radioligand binding
[5] = molecular target: HLA-B∗39:06 (purified MHC molecules) (human); assay: radioligand binding
HLA-B∗39:06 [6] = molecular target: T1, HLA-B∗39:06; conditions: cited from earlier work
Protocol: We previously reported the sequences of peptides endogenously bound to and eluted from HLA-B∗39:06 molecules purified from the human lymphoblastoid cell line C1R/HLA-B∗39:06 ([26]). […] Our strategy was based on the prior seminal observations of Ploegh et al. ([27]) that the incubation of cells at 26 °C allows for empty class I MHC molecules to reach the cell surface, and that the MHC can be stabilized if a binding peptide is also included. […] Assays to quantitatively measure peptide binding to purified B∗39:06 and B∗39:01 molecules were based on the inhibition of binding of a high-affinity radiolabeled peptide and performed as described ([26]).

HLA-B∗38:01 [7] = molecular target: T3, HLA-B∗38:01; set-up: made in house; conditions: read-out: IC50 of the probe peptide (HLA-B∗38:01 assay); cited from earlier work
[8] = molecular target: HLA-B∗38:01 (purified MHC molecules) (human); assay: radioligand binding; cell-free competitive assay as for B∗39:06, with purified HLA-B∗38:01 and radiolabelled … as the probe

Row | Molecule | IC50 (HLA-B∗39:06 [1]) [nM] | IC50 (HLA-B∗39:01) [nM] | IC50 (HLA-B∗38:01 [2]) [µM] | IC50 [4] [nM] | IC50 [5] [nM] | other results
1 | NRVMLPKAA | 14 | 35 | > 50 | – | – | –
2 | TNLFLFLFAV | 354 | 3950 | 6.69 | – | – | –
3 | CC(C)C[C@H](NC(=O)[C@H](C)NC(=O)[C@H](CC(N)=O)NC(=O)[C@H](CCC(=O)O)NC(=O)[C@@H](NC(=O)[C@H](C)NC(=O)[C@@H](NC(=O)[C@H](Cc1c[nH]cn1)NC(=O)[C@@H](N)CO)C(C)C)C(C)C)C(=O)O [SHVAVENAL, reference compound] | 696 | 11 | 0.321 | – | – | –
4 | MRLLPLLA (human insulin, position 5, 8mer) (peptide) | – | – | – | 62 | 41 | IC50 [3]: 44500 nM
5 | … (DDX3X, position 2) (peptide) | – | – | – | 11 | 696 | IC50 [3]: 321 nM
6 | NRVMLPKA (NLRP2, position 320, 8mer) (peptide) | – | – | – | 85 | 41 | –
7 | … (human insulin, position 5, 9mer) (peptide) | – | – | – | 14 | 677 | IC50 [3]: 850 nM
8 | SASIPLTVVA | 310 | 30900 | > 50 | – | – | –
9 | DHAVVVGV | – | – | – | – | – | rank of binding to HLA-B∗39:06 among the candidate endogenous ligands (HLA-B∗39:06 [6]; cell-free competitive assay, purified HLA-B∗39:06 and high-affinity radiolabeled ligand, also data not shown): by far the weakest HLA-B∗39:06 binder among the candidates
10 | SHLVEALYL | 35600 | 5250 | 0.01 | – | – | –
11 | FRLLCALTSL | 7.4 | 290 | 2.76 | – | – | –
12 | FLFLFAVG | 405 | 17900 | > 50 | – | – | –
13 | WMRLLPLLA | 155 | 865 | > 50 | – | – | –
14 | NRVMLPKA | 41 | 85 | – | – | – | –
15 | YHIPGDTLF | – | – | – | – | – | IC50 (HLA-B∗38:01 [7]): 1.4 nM
16 | MRLLPLLAL [MRLLPLLAL] | 677 | 14 | 0.85 | – | – | –
17 | MRLLPLLA | 41 | 62 | 44.5 | – | – | –
18 | YHFLQIPT (human G6Pase 2, position 307) (peptide) | – | – | – | 660 | 151 | IC50 [3]: 9750 nM
19 | … (Variola virus RNA helicase 346–354) (peptide) | – | – | – | – | – | IC50 [3]: 1.4 nM
20 | YHFLQIPT | 151 | 660 | 9.75 | – | – | –
21 | CC(C)C[C@H](NC(=O)[C@H](CS)NC(=O)[C@@H]1CCCN1C(=O)[C@H](CO)NC(=O)[C@H](CO)NC(=O)[C@H](Cc1c[nH]cn1)NC(=O)[C@@H](N)CC(N)=O)C(=O)N[C@@H](CCC(=O)O)C(=O)N[C@@H](CCC(N)=O)C(=O)N[C@@H](Cc1ccccc1)C(=O)O | > 50000 | 25700 | – | – | – | –
22 | THFPHQVIL | 2600 | 73 | 0.142 | – | – | –
23 | FRYQGHVGA [Homo sapiens proteasome subunit 127–135, reference compound] | – | – | – | – | – | IC50 (HLA-B∗39:06 [6]; unlabeled version of the radiolabeled probe, read-out: IC50 of the probe peptide for B∗39:06): 24 nM
24 | NRVMLPKAA [… (NLRP2 320 to 328), free peptide] | – | – | – | 35 | 14 | IC50 [8]: > 50 µM
25 | SASIPLTVVA [… (human G6Pase 2, position 328)] | – | – | – | 30900 | 310 | IC50 [8]: > 50 µM
26 | FRYQGHVGA (not fully specified) [… (Homo sapiens proteasome subunit 127–135)] | – | – | – | – | 24 | –
27 | WMRLLPLLA [… (human insulin, position 4)] | – | – | – | 865 | 155 | IC50 [8]: > 50 µM
28 | FLFLFAVG [FLFLFAVG (human G6Pase 2, position 213)] | – | – | – | 17900 | 405 | IC50 [8]: > 50 µM
